In the CheMixHub viscosity set:
Values joined by “and” are separate entries in the source; they are usually repeats but may differ in a detail not shown here. Identical values can stand only once.

Test: xn = mol fraction of the nth substance listed

ClCCCl + COCCO
298 K, 101.33 kPa
Conditions | viscosity [mPa·s]
x2 = 0.1031 | 0.803
x2 = 0.1362 | 0.811
x2 = 0.2067 | 0.83
x2 = 0.2908 | 0.882
x2 = 0.395 | 0.954
x2 = 0.5147 | 1.059
x2 = 0.5965 | 1.138
x2 = 0.6926 | 1.232
x2 = 0.7409 | 1.28
x2 = 0.9141 | 1.458

C[Si]1(C)O[Si](C)(C)O[Si](C)(C)O[Si](C)(C)O1 + CCCCCCCCCCCCC
viscosity [mPa·s], 103 kPa
Conditions | 298.15 K | 308.15 K | 318.15 K
x1 = 0.05 | 1.619 | 1.351 | 1.145
x1 = 0.1 | 1.61 | 1.343 | 1.139
x1 = 0.15 | 1.604 | 1.339 | 1.137
x1 = 0.2 | 1.602 | 1.338 | 1.134
x1 = 0.2501 | 1.604 | 1.346 | 1.136
x1 = 0.3 | 1.608 | 1.342 | 1.139
x1 = 0.35 | 1.614 | 1.345 | 1.143
x1 = 0.4 | 1.62 | 1.355 | 1.149
x1 = 0.45 | 1.636 | 1.366 | 1.159
x1 = 0.5 | 1.649 | 1.375 | 1.167
x1 = 0.55 | 1.667 | 1.389 | 1.177
x1 = 0.6 | 1.69 | 1.406 | 1.191
x1 = 0.65 | 1.715 | 1.43 | 1.209
x1 = 0.7 | 1.751 | 1.458 | 1.24
x1 = 0.75 | 1.794 | 1.498 | 1.269
x1 = 0.8 | 1.826 | 1.53 | 1.293
x1 = 0.85 | 1.89 | 1.572 | 1.328
x1 = 0.9 | 1.941 | 1.62 | 1.365
x1 = 0.95 | 1.996 | 1.659 | 1.405

[Ce+3].[Cl-].[Cl-].[Cl-] + O
Conditions | viscosity
298.15 K, 101.33 kPa, x1 = 0.06822 | 12.27 mPa·s and 12.27 mPa·s

ClCCl + CC(C)=O
viscosity [mPa·s], 101 kPa
Conditions | x2 = 0.0866 | x2 = 0.186 | x2 = 0.3088 | x2 = 0.3898 | x2 = 0.4934 | x2 = 0.5941 | x2 = 0.6959 | x2 = 0.8096 | x2 = 0.899
293.15 K | 0.439 | 0.436 | 0.423 | 0.412 | 0.4 | 0.388 | 0.374 | 0.358 | 0.339
298.15 K | 0.422 | 0.417 | 0.405 | 0.396 | 0.383 | 0.37 | 0.357 | 0.343 | 0.327

CC(=O)O + Cc1cccc(C)c1
viscosity [mPa·s], 101.3 kPa
Conditions | x2 = 0.1087 | x2 = 0.218 | x2 = 0.2726 | x2 = 0.3467 | x2 = 0.4518 | x2 = 0.5763 | x2 = 0.6567 | x2 = 0.7671 | x2 = 0.8589
298.15 K | 0.952 | 0.809 | 0.753 | 0.7 | 0.648 | 0.618 | 0.603 | 0.591 | 0.579
303.15 K | 0.861 | 0.746 | 0.707 | 0.655 | 0.615 | 0.582 | 0.568 | 0.554 | 0.545
313.15 K | 0.777 | 0.665 | 0.624 | 0.58 | 0.543 | 0.519 | 0.507 | 0.501 | 0.494
323.15 K | 0.687 | 0.59 | 0.554 | 0.518 | 0.483 | 0.466 | 0.459 | 0.451 | 0.444
